The source of these data is US20120065179A1, “PRODRUG COMPRISING BETA-KETO CARBOXYLIC ACID, BETA-KETO CARBOXYLIC ACID SALT OR BETA-KETO CARBOXYLIC ACID ESTER FOR DRUG DELIVERY” (YKI, Ytemiska Institutet AB, priority 2009, published 2012).

Where “and” joins values, the source holds several entries; their conditions need not be identical. Identical values can stand only once.

Series [1] can be described thus: In-vitro hydrolysis of Nabumetone beta-keto ester pro-prodrug and release of Nabumetone in model blood electrolyte solution at 37° C. The format is physicochemical. Conditions: model blood solutes solution.
A short description of series [2]: Storage stability of beta-keto calcium salt prodrug of Nabumetone (17 days at 60° C., HPLC). The format is physicochemical. The conditions noted are these: for Relative amount of calcium salt beta-keto prodrug/Nabumetone remaining after 17 days at 60° C.: dry calcium salt, oven at 60° C.
The nature of series [3]: Storage stability of benzoylacetate salts and their corresponding acid (HPLC or gravimetric). The format is physicochemical. Conditions: for weight % of initial amount: Solid benzoylacetic acid, room T and ambient indoor humidity. As for the experimental part: A 0.2 M solution of ethyl benzoyl acetate (90%, Sigma Aldrich) in 0.5 M NaOH (aq) was prepared at room temperature and stirred for typically 5-24 hours, still at room temperature. After this time a major part of the ethyl benzoyl acetate had been transformed into dissolved sodium benzoyl acetate, as evidenced by monitoring the reaction by analysis of samples by reversed phase HPLC. Some acetophenone and remaining ethyl benzoyl acetate were typically present in the samples, but in minor amounts. The method employed a C8 column with an inner diameter of 150×4.6 mm and 5 micron particles. The mobile phase consisted of 400 ml deionized water+600 ml acetonitrile+0.196 g H3PO4 (85%)+2.760 g NaH2PO4*H2O. The flow rate was set to 1.0 mL/min and UV detection at 254 nm was employed for analysis of the compounds ethylbenzoylacetate (precursor), benzoylacetate (model prodrug) and acetophenone (model drug).
The storage stability of the sodium and calcium salts of benzoylacetate, and of benzoylacetic acid, in solid form, and in aqueous solutions, was investigated by storage of samples under various conditions (see Table 3a above) with regular HPLC- or gravimetric measurements of the samples from time to time. Samples denoted “neutralized” were prepared from a solution prepared as described in Example 1, which was neutralized with diluted HCl after performing the steps in Example 1.
From the data it can be concluded that the best storage stability at room temperature is obtained by storage in the form of the calcium salt.

Series [4] can be described thus: Sustained release of acetophenone in vitro in pig blood at 37° C. The conditions noted are these: for Benzoyl acetate ion concentration: pig blood pH 6.63.

Consider `COc1ccc2cc(CCC(=O)CC(=O)O)ccc2c1` [Prodrug/beta-keto anion, 5-(6-methoxy-2-naphthyl)-beta-keto-pentanoate], for which the “Prodrug/beta-keto anion (HPLC area)” value in series [1] (Time 0.00 hours) stood at 2055 arbitrary units; in series [1] (Time 0.67 hours), 2313 arbitrary units; in series [1] (Time 1.67 hours) it was 2383 arbitrary units; in series [1] (Time 2.67 hours), 2266 arbitrary units; in series [1] (Time 4.58 hours), 2204 arbitrary units; in series [1] (Time 22.6 hours), 2079 arbitrary units. For the same molecule, the “Prodrug/beta-keto anion (HPLC area)” value is 2284 arbitrary units in series [1] (Time 28.8 hours); 2312 arbitrary units in series [1] (Time 48.8 hours); 2350 arbitrary units in series [1] (Time 53.6 hours); 2087 arbitrary units and 2313 arbitrary units in series [1] (Time 70.3 hours); 1915 arbitrary units and 1922 arbitrary units in series [1] (Time 96.8 hours); 1620 arbitrary units in series [1] (Time 121.25 hours). Besides, the “Prodrug/beta-keto anion (HPLC area)” value is listed as 1444 arbitrary units in series [1] (Time 145.0 hours); 1220 arbitrary units in series [1] (Time 172.6 hours); 1043 arbitrary units in series [1] (Time 197.3 hours); 943 arbitrary units in series [1] (Time 218.4 hours); 400 arbitrary units in series [1] (Time 293.7 hours); 398.5 arbitrary units in series [1] (Time 335 hours).

Turning to “5-(6-methoxy-2-naphthyl)-beta-keto-pentanoate [Beta keto salt prodrug]”, the half life in series [2] (calcium salt form at 20° C., rule of thumb of doubling of reaction rate per 10° C.) is around 270 days. Further, the “Obtained value (area units)” value in series [2] (dry calcium salt after 17 days at 60° C., redissolved in water, HPLC) turned out to be 1591 area units. For the same molecule, the “Relative amount of calcium salt beta-keto prodrug/Nabumetone remaining after 17 days at 60° C.” value in series [2] is 54.7%; in series [2] (listed as calcium beta-keto salt prodrug of Nabumetone) it was “more than 50%”. Further, the “Expected value if no breakdown occured during storage and a 100% yield was obtained upon precipitation with calcium chloride” value in series [2] (recalculated for dilution) was 55938 area units.

The term half-life denotes the time needed for the level to fall by half in the phase considered. Consider `O=C(O)CC(=O)c1ccccc1` [benzoylacetic acid], for which the “weight % of initial amount” value is 100 weight % in series [3] (storage time 0 days); 94.7 weight % in series [3] (storage time 9 days); 87.4 weight % in series [3] (storage time 23 days); 85.4 weight % in series [3] (storage time 27 days); 84.4 weight % in series [3] (storage time 29 days); 81.9 weight % in series [3] (storage time 35 days). Also, the “weight % of initial amount” value was found to be 79.4 weight % in series [3] (storage time 42 days) and 73.6 weight % in series [3] (storage time 52 days). In addition, the half-life in series [3] (solid dry acid, typical indoor conditions) is around 100 days.

For benzoyl acetate [Benzoyl acetate ion], the half life entry in series [4] (pig blood pH 6.63, 37° C.) is reported as “about 3 hours”. Besides, the “period of sustained release of the acetophenone (model drug)” value in series [4] (pig blood pH 6.63, 37° C.) was “at least 6 hours”. Also, the “Benzoyl acetate ion concentration” value in series [4] (Time at 37° C. 0.25) was determined as 1.83 mM; in series [4] (Time at 37° C. 1.33), 1.54 mM; in series [4] (Time at 37° C. 2.58 (sampling time possibly exchanged with 4.75)) it was 1.17 mM; in series [4] (Time at 37° C. 4.75 (sampling time possibly exchanged with 2.58)), 0.929 mM; in series [4] (Time at 37° C. 5.58), 0.724 mM; in series [4] (Time at 37° C. 6.58), 0.641 mM. Besides, the “Benzoyl acetate ion concentration” value in series [4] (Time at 37° C. 22.58) is listed as 0.0356 mM; in series [4] (Time at 37° C. −0.17 (analysed just before heating to 37° C.)) it was 2.30 mM.
